Reference: ChEMBL document CHEMBL5321233, “Biological activity of 1,2,3-triazole-2-amino-1,4-naphthoquinone derivatives and their evaluation as therapeutic strategy for malaria control” (Eur J Med Chem, 2023)
Active and inactive are the calls of the source. The rule behind the calls is not given here.

Assays:
[1] = Acute toxicity in Albino Swiss mouse assessed as signs of pallor at 300 mg/kg, po administered as single dose measured after 14 days; type: organism-based; conditions: in vivo, 336 h, time 14 day
Plasmodium falciparum [2] = test: Induction of morphological changes in chloroquine-resistant Plasmodium falciparum W2 at early trophozoite stage assessed as development-limiting of parasitophorous vacuole membrane by TEM analysis; type: functional, organism-based
[3] = Acute toxicity in Albino Swiss mouse assessed as behavioural toxicity at 300 mg/kg, po administered as single dose measured after 14 days; type: organism-based; conditions: in vivo, 336 h, time 14 day
[4] = Acute toxicity in Albino Swiss mouse assessed as change in relative weight of spleen at 300 mg/kg, po administered as single dose measured after 14 days; type: organism-based; conditions: in vivo, 336 h, time 14 day
[5] = Acute toxicity in Albino Swiss mouse assessed as congestion of globular center vein in liver at 300 mg/kg, po administered as single dose measured after 14 days by H and E staining based analysis; type: organism-based; conditions: in vivo, 336 h, time 14 day
[6] = Acute toxicity in Albino Swiss mouse assessed as atrophic glomerulus with congested capillaries in kidney at 300 mg/kg, po administered as single dose measured after 14 days by H and E staining based analysis; type: organism-based; conditions: in vivo, 336 h, time 14 day
[7] = Acute toxicity in Albino Swiss mouse assessed as change in diarrhea at 300 mg/kg, po administered as single dose measured after 14 days; type: organism-based; conditions: in vivo, 336 h, time 14 day
[8] = Acute toxicity in Albino Swiss mouse assessed as necrosis of hepatocytes at 300 mg/kg, po administered as single dose measured after 14 days by H and E staining based analysis; type: organism-based; conditions: in vivo, 336 h, time 14 day
[9] = Hemolytic activity in human red blood cells assessed as hemoglobin release at 250 to 15.6 uM incubated for 60 mins by spectrophotometry; type: toxicity, cell-based, Erythrocyte; conditions: dose 250-15.6 µM, read-out: Activity
[10] = Acute toxicity in Albino Swiss mouse assessed as change in defecation at 300 mg/kg, po administered as single dose measured after 14 days; type: organism-based; conditions: in vivo, 336 h, time 14 day
[11] = Acute toxicity in Albino Swiss mouse assessed as change in sensory function at 300 mg/kg, po administered as single dose measured after 14 days; type: organism-based; conditions: in vivo, 336 h, time 14 day
[12] = Toxicity in Albino Swiss mouse infected with Plasmodium berghei ANKA assessed as animal survival at 30 mg/kg, po administered for 4 consecutive days measured for 14 days relative to control; type: organism-based; conditions: in vivo, time 14 day
[13] = Acute toxicity in Albino Swiss mouse assessed as signs of toxicity at 300 mg/kg, po administered as single dose measured after 14 days; type: organism-based; conditions: in vivo, 336 h, time 14 day
Plasmodium berghei [14] = test: Antimalarial activity against Plasmodium berghei ANKA infected in Albino Swiss mouse assessed as reduction in parasitemia at 30 mg/kg, po administered for 4 consecutive days measured after day 5 relative to control; type: functional; design: scale not given: the % may be the effect or the level left; conditions: time 5 day
[15] = Acute toxicity in Albino Swiss mouse assessed as distribution of hemosiderophages in parenchyma of spleen at 300 mg/kg, po administered as single dose measured after 14 days by H and E staining based analysis; type: organism-based; conditions: in vivo, 336 h, time 14 day
[16] = Acute toxicity in Albino Swiss mouse assessed as acidophilic cytoplasm with macro-vacuoles in liver at 300 mg/kg, po administered as single dose measured after 14 days by H and E staining based analysis; type: organism-based; conditions: in vivo, 336 h, time 14 day
[17] = Acute toxicity in Albino Swiss mouse assessed as podocytes with discrete thickening of basal membrane in kidney at 300 mg/kg, po administered as single dose measured after 14 days by H and E staining based analysis; type: organism-based; conditions: in vivo, 336 h, time 14 day
Plasmodium falciparum [18] = test: Induction of morphological changes in chloroquine-resistant Plasmodium falciparum W2 at early trophozoite stage assessed as development-limiting of plasma membrane by TEM analysis; type: functional, organism-based
[19] = Acute toxicity in Albino Swiss mouse assessed as granular degeneration in liver at 300 mg/kg, po administered as single dose measured after 14 days by H and E staining based analysis; type: organism-based; conditions: in vivo, 336 h, time 14 day
[20] = Acute toxicity in Albino Swiss mouse assessed as change in relative weight of kidney at 300 mg/kg, po administered as single dose measured after 14 days; type: organism-based; conditions: in vivo, 336 h, time 14 day
[21] = Acute toxicity in Albino Swiss mouse assessed as recurrent tubules with loss of polarity in kidney at 300 mg/kg, po administered as single dose measured after 14 days by H and E staining based analysis; type: organism-based; conditions: in vivo, 336 h, time 14 day
Plasmodium berghei [22] = test: Antimalarial activity against Plasmodium berghei ANKA infected in Albino Swiss mouse assessed as reduction in parasitemia at 30 mg/kg, po administered for 4 consecutive days measured after day 7 relative to control; type: functional; design: scale not given: the % may be the effect or the level left; conditions: time 7 day
[23] = Cytotoxicity against African green monkey Vero cells incubated for 24 hrs by MTT assay; type: toxicity, cell-based; conditions: chlorocebus sabaeus
[24] = Acute toxicity in Albino Swiss mouse assessed as acidophilic cytoplasm with micro-steatosis in liver at 300 mg/kg, po administered as single dose measured after 14 days by H and E staining based analysis; type: organism-based; conditions: in vivo, 336 h, time 14 day
[25] = Acute toxicity in Albino Swiss mouse assessed as change in motor function at 300 mg/kg, po administered as single dose measured after 14 days; type: organism-based; conditions: in vivo, 336 h, time 14 day
[26] = Acute toxicity in Albino Swiss mouse assessed as fusion of lymphoid follicles in spleen at 300 mg/kg, po administered as single dose measured after 14 days by H and E staining based analysis; type: organism-based; conditions: in vivo, 336 h, time 14 day
[27] = Selectivity index, ratio of CC50 for African green monkey Vero cells to IC50 for chloroquine-resistant Plasmodium falciparum W2 infected in human erythrocytes; type: toxicity, cell-based; conditions: read-out: Ratio CC50/IC50
[28] = Acute toxicity in Albino Swiss mouse assessed as animal mortality at 300 mg/kg, po administered as single dose measured after 14 days; type: organism-based; conditions: in vivo, 336 h, time 14 day
[29] = Acute toxicity in Albino Swiss mouse assessed as change in relative weight of liver at 300 mg/kg, po administered as single dose measured after 14 days; type: organism-based; conditions: in vivo, 336 h, time 14 day
HepG2 = test: Cytotoxicity against human HepG2 cells incubated for 24 hrs by MTT assay; type: functional
Plasmodium falciparum [30] = test: Antimalarial activity against chloroquine-resistant Plasmodium falciparum W2 infected in human erythrocytes assessed as parasite growth inhibition incubated for 48 hrs by geimsa staining based microscopy; type: functional, organism-based; conditions: W2, Erythrocyte
[31] = Acute toxicity in Albino Swiss mouse assessed as aggressiveness at 300 mg/kg, po administered as single dose measured after 14 days; type: organism-based; conditions: in vivo, 336 h, time 14 day
Plasmodium berghei [32] = test: Antimalarial activity against Plasmodium berghei ANKA infected in Albino Swiss mouse assessed as half-survival time at 30 mg/kg, po administered for 4 consecutive days measured for 30 days (reference value: 16 day); type: functional; conditions: time 30 day
[33] = Acute toxicity in Albino Swiss mouse assessed as mesangial cells reduction in kidney at 300 mg/kg, po administered as single dose measured after 14 days by H and E staining based analysis; type: organism-based; conditions: in vivo, 336 h, time 14 day
[34] = Acute toxicity in Albino Swiss mouse assessed as change in urine color at 300 mg/kg, po administered as single dose measured after 14 days; type: organism-based; conditions: in vivo, 336 h, time 14 day
[35] = Octanol-water partition coefficient, logP of the compound; type: physicochemical
[36] = Acute toxicity in Albino Swiss mouse assessed as hyperplasia in spleen at 300 mg/kg, po administered as single dose measured after 14 days by H and E staining based analysis; type: organism-based; conditions: in vivo, 336 h, time 14 day
[37] = Acute toxicity in Albino Swiss mouse assessed as signs of hyperemia at 300 mg/kg, po administered as single dose measured after 14 days; type: organism-based; conditions: in vivo, 336 h, time 14 day
[38] = Acute toxicity in Albino Swiss mouse assessed as congestion of hepatic portal vein in liver at 300 mg/kg, po administered as single dose measured after 14 days by H and E staining based analysis; type: organism-based; conditions: in vivo, 336 h, time 14 day
[39] = Acute toxicity in Albino Swiss mouse assessed as signs of cyanosis at 300 mg/kg, po administered as single dose measured after 14 days; type: organism-based; conditions: in vivo, 336 h, time 14 day
[40] = Hemolytic activity in human red blood cells type A assessed as hemoglobin release at 500 to 1000 uM incubated for 60 mins by spectrophotometry; type: toxicity, cell-based, Erythrocyte; conditions: dose 500-1000 µM, read-out: Activity
[41] = Acute toxicity in Albino Swiss mouse assessed as activated macrophages in spleen at 300 mg/kg, po administered as single dose measured after 14 days by H and E staining based analysis; type: organism-based; conditions: in vivo, 336 h, time 14 day
[42] = Acute toxicity in Albino Swiss mouse assessed as change in urination volume at 300 mg/kg, po administered as single dose measured after 14 days; type: organism-based; conditions: in vivo, 336 h, time 14 day
[43] = Acute toxicity in Albino Swiss mouse assessed as escape reaction at 300 mg/kg, po administered as single dose measured after 14 days; type: organism-based; conditions: in vivo, 336 h, time 14 day
Plasmodium falciparum [44] = test: Induction of morphological changes in chloroquine-resistant Plasmodium falciparum W2 at early trophozoite stage assessed as degenerating organelles by TEM analysis; type: functional, organism-based
Plasmodium falciparum [45] = test: Induction of morphological changes in chloroquine-resistant Plasmodium falciparum W2 at early trophozoite stage assessed as rounded nucleus with degenerative changes by TEM analysis; type: functional, organism-based
[46] = Acute toxicity in Albino Swiss mouse assessed as contortions at 300 mg/kg, po administered as single dose measured after 14 days; type: organism-based; conditions: in vivo, 336 h, time 14 day
[47] = Acute toxicity in Albino Swiss mouse assessed as developmment-delimiting germinal center in spleen at 300 mg/kg, po administered as single dose measured after 14 days by H and E staining based analysis; type: organism-based; conditions: in vivo, 336 h, time 14 day
[48] = Selectivity index, ratio of CC50 for human HepG2 cells to IC50 for chloroquine-resistant Plasmodium falciparum W2 infected in human erythrocytes; type: toxicity, cell-based; conditions: read-out: Ratio CC50/IC50

O=C1C=C(NCCn2cc(C3(O)CCCCC3)nn2)C(=O)c2ccccc21
Activity [1]: Non-Toxic | Activity (Plasmodium falciparum [2]): Active | Activity [3]: Non-Toxic | Activity [4]: Non-Toxic | Activity [5]: Toxic | Activity [6]: Toxic | Activity [7]: Non-Toxic | Activity [8]: Toxic | hemolysis at 1 h [9]: < 40% | Activity [10]: Non-Toxic | Activity [11]: Non-Toxic | survival at 336 h [12]: 100% | Activity [13]: Non-Toxic | Activity (Plasmodium berghei [14]): 38.5% | Activity [15]: Toxic | Activity [16]: Toxic | Activity [17]: Toxic | Activity (Plasmodium falciparum [18]): Active | Activity [19]: Toxic | Activity [20]: Non-Toxic | Activity [21]: Toxic | Activity (Plasmodium berghei [22]): 35% | CC50 at 24 h [23]: 1340 µM | Activity [24]: Toxic | Activity [25]: Non-Toxic | Activity [26]: Toxic | selectivity ratio [27]: 495 | Activity [28]: Non-Toxic | Activity [29]: Non-Toxic | CC50 (HepG2): 441 µM | IC50 (Plasmodium falciparum [30]): 2.7 µM | Activity [31]: Non-Toxic | Survival (Plasmodium berghei [32]): 38.5 days | Activity [33]: Toxic | Activity [34]: Non-Toxic | logP [35]: 2.55 | Activity [36]: Toxic | Activity [37]: Non-Toxic | Activity [38]: Toxic | Activity [39]: Non-Toxic | hemolysis at 1 h, up to 1000 µM [40]: > 40% | Activity [41]: Toxic | Activity [42]: Non-Toxic | Activity [43]: Non-Toxic | Activity (Plasmodium falciparum [44]): Active | Activity (Plasmodium falciparum [45]): Active | Activity [46]: Non-Toxic | Activity [47]: Toxic | selectivity ratio [48]: 163
